We go through 82 molecules from the METLIN SMRT retention time set (Domingo-Almenara et al. 2019).

Molecules are shown by their SMILES.

A short description of the data set: gradient 5% acetonitrile 3 min, to 50% in 2 min, to 85% in 15 min, held 3 min, 100 µL/min. Conditions: column: Zorbax Extend-C18 2.1 x 50 mm; eluents: water / acetonitrile, 0.1% formic acid. An outline of the steps: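 Retention time was recorded from adduct peaks, which were picked computationally and each inspected manually. Pure standards ran in mixtures of ~100 molecules on HPLC coupled to a quadrupole time-of-flight mass spectrometer, in positive and negative ionization mode, through a Zorbax Extend-C18 column (2.1 × 50 mm, 1.8 μm) at 100 μL/min. Eluents were water and acetonitrile, each with 0.1% formic acid.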
As to `CC(C)NC(=O)Cn1c(C2CCCO2)nc2ccccc21` (configuration not stated), the RP-LC retention time turned out to be 585 s.

The molecule `COc1ccccc1C1CC(c2ccccc2NS(C)(=O)=O)=NN1C(=O)c1ccco1` (configuration not stated) returned an RP-LC retention time of 902 s.

In the case of `Cc1cccc(CNC(=O)C2CCN(S(=O)(=O)c3ccc4c(c3)NC(=O)CO4)CC2)c1`, the RP-LC retention time stood at 794 s.

`CCOC(=O)c1[nH]c(C)c(CCC(=O)NC(C)c2ccc3c(c2)OCCO3)c1C` (configuration not stated) had an RP-LC retention time of 821 s.

The molecule `CCc1ccc(C2=C(C)C(N3CCCN(C(=O)NCC(C)C)CC3)=NS2(=O)=O)cc1` came in with an RP-LC retention time of 842 s.

Molecule `CCOCCCNC(=O)C1CCCN(C(=O)c2[nH]c(C)cc2C)C1` (configuration not stated) came in with an RP-LC retention time of 678 s.

Regarding `Cc1cc(C)cc(NS(=O)(=O)c2c(C)sc(C)c2-c2n[nH]c(C)c2C)c1`, the RP-LC retention time was found to be 1110 s.

`Cc1cc(C(F)F)n2nc(C(=O)Nc3ccc(Br)cc3)nc2n1` had an RP-LC retention time of 891 s.

`O=C(C1CCC1)N1CCc2sc(S(=O)(=O)NCc3ccc(F)cc3Cl)cc2C1` gave an RP-LC retention time of 948 s.

On to `CCc1ccccc1NC(=O)Cn1ncc2c(N3CCN(c4ccccn4)CC3)ncnc21`, for which the RP-LC retention time was determined as 608 s.

As for `CCNC(=O)C1CCCN(C(=O)Nc2ccc(NC(=O)Nc3ccc(C)c(C)c3)cc2)C1` (configuration not stated), the RP-LC retention time amounted to 748 s.

For the molecule `CCCCN1CCN(S(=O)(=O)c2cc(-c3nnc(C(C)C)o3)co2)CC1`, the RP-LC retention time came out at 652 s.

Take `CCN(CC)S(=O)(=O)c1ccc(NC(=O)N2CCCC(C(=O)Nc3ccc(OC)cc3)C2)s1` (configuration not stated): the RP-LC retention time is 884 s.

Consider `O=C(Nc1cccc(F)c1)Nc1ccc2nncn2c1`, for which the RP-LC retention time came to 686 s.

The molecule `Cc1c(Cl)cccc1NC(=O)C(=O)NCc1ccsc1` displayed an RP-LC retention time of 943 s.

Molecule `CCOc1cc(=O)n2c(c1C(=O)Nc1cccc3c1CCCC3)CCCC2` returned an RP-LC retention time of 804 s.

The molecule `Cc1cn(C)c(CC(=O)NC2CCCCCC2)c1C(=O)O` came in with an RP-LC retention time of 765 s.

For the molecule `O=C(Cc1ccc(F)cc1)Nc1nc(-c2ccccc2)cs1`, the RP-LC retention time turned out to be 988 s.

The molecule `O=C(CN1CCc2ccccc2C1C(=O)N1CCCCC1)NCc1ccccn1` (configuration not stated) registered an RP-LC retention time of 755 s.

As for `COCCNC(=O)c1cc2c(=O)n(Cc3ccccc3)ccc2s1`, the RP-LC retention time was 719 s.

With `CC(C)N1CCN(Cc2ccc(C(=O)NCc3ccccc3)cc2)C(=O)C1=O`, the RP-LC retention time was determined as 685 s.

Take `CNC(=O)N1CC(c2nc(-c3ccccc3)no2)C2(CCOCC2)C1` (configuration not stated): the RP-LC retention time came out at 679 s.

`COc1ccc2c(c1)C=C(C(=O)NCc1ccccc1OC)C=CO2` displayed an RP-LC retention time of 944 s.

Consider `CCOC(=O)c1c(C)[nH]c(CCC(=O)NCCN2CCCC2)c1C`, for which the RP-LC retention time is 554 s.

Regarding `O=C(Nc1nnc(Cc2ccccc2)s1)C1CC(=O)N(c2n[nH]c3cccc(F)c23)C1` (configuration not stated), the RP-LC retention time came out at 745 s.

Regarding `CCn1c(=O)c(N2CCCC(C(=O)NCCCN3CCOCC3)C2)nc2cccnc21` (configuration not stated), the RP-LC retention time is 621 s.

In turn, `Cc1nc(-c2ccccc2)nc2c1CC(=O)N2Cc1cccs1` yielded an RP-LC retention time of 1070 s.

In turn, `Cc1c(-c2ccnc(N3CCN(C)CC3)n2)cnc2nc(-c3ccccc3)nn12` displayed an RP-LC retention time of 640 s.

In the case of `CNC(=O)c1c(NC(=O)c2ccc(N(C)C)cc2)sc2c1CCC2`, the RP-LC retention time is 1030 s.

Consider `CCCNC(=O)C1CCCN(c2ccc(SCC(=O)Nc3ccccc3Br)nn2)C1` (configuration not stated), for which the RP-LC retention time stood at 670 s.

The molecule `O=C(Nc1c(-c2ccc(F)cc2)nc2ccccn12)c1ccc(Cl)cc1Cl` yielded an RP-LC retention time of 739 s.

In the case of `Cn1cc(C2=CCN(C(=O)NC(C)(C)C)CC2)c2cccnc21`, the RP-LC retention time is 604 s.

In turn, `Cc1ccc(NC(=O)C2CC(=O)N(c3n[nH]c4cccc(F)c34)C2)cc1` (configuration not stated) had an RP-LC retention time of 708 s.

Take `CCCCNc1nc(-c2ccc(Cl)cc2)nc2ccccc12`: the RP-LC retention time stood at 873 s.

The molecule `CCC(C)NC(=O)c1cc(C)n(C)n1` (configuration not stated) registered an RP-LC retention time of 660 s.

In turn, `COc1ccc(CN2CCc3nc(N4CCOCC4)ncc3C2)c(OC)c1OC` yielded an RP-LC retention time of 597 s.

Take `Cc1noc(C2CN(C(=O)c3cnn(C)c3)CC23CCCC3)n1` (configuration not stated): the RP-LC retention time was 684 s.

In turn, `O=C(NC1CCCCCCC1)C1CCN(S(=O)(=O)c2cc(-c3noc(C4CC4)n3)cs2)CC1` came in with an RP-LC retention time of 1100 s.

With `O=C(NC1CCN(c2cc(-c3cccs3)[nH]n2)CC1)c1ccc(Cl)cc1`, the RP-LC retention time turned out to be 749 s.

`O=C(C1CCCN(S(=O)(=O)N2CCOCC2)C1)N1CCN(c2ccc(F)cc2)CC1` (configuration not stated) registered an RP-LC retention time of 807 s.

The molecule `Cc1nnc2sc(SCC(=O)NCc3ccc4c(c3)OCO4)nn2c1=O` showed an RP-LC retention time of 603 s.

`Cc1ccc(NC(=O)Nc2c(Cl)cccc2Cl)cn1` gave an RP-LC retention time of 905 s.

`CCOC(=O)c1c(C)oc2nc(C)nc(N3CCN(c4ccccc4F)CC3)c12` registered an RP-LC retention time of 1210 s.

Take `CCn1c(C(=O)NCc2ccc(F)cc2)cc2sccc21`: the RP-LC retention time turned out to be 1010 s.

Molecule `CCN1C(=O)C2CC3(CCN(C(=O)CC(C)C)CC3)CN2C1=O` (configuration not stated) came in with an RP-LC retention time of 692 s.

Regarding `O=C(NC1CC1)c1ccc2c(c1)CCN2C(=O)C1CCC1`, the RP-LC retention time stood at 721 s.

In the case of `Fc1cccc(-c2noc(-c3nnn4c3COC(c3ccc(Cl)cc3)C4)n2)c1` (configuration not stated), the RP-LC retention time was 1170 s.

Turning to `CC(C)C(=O)Nc1nc(-c2cccc3ccccc23)cs1`, the RP-LC retention time turned out to be 1020 s.

Take `CCN1C(=O)NC(c2ccccc2C(F)(F)F)C2=C1CN(CCC(=O)NC1CC1)C2=O` (configuration not stated): the RP-LC retention time stood at 605 s.

With `COCCCN(CC(=O)N1CCNCC1)C(=O)c1ccc(Br)cc1`, the RP-LC retention time turned out to be 603 s.

For the molecule `CCCn1cc(CNC(=O)CN2CCN(Cc3ccc(F)cc3)C2=O)c(C)n1`, the RP-LC retention time was 674 s.

`CC(C)(C)OC(=O)Cn1cnc2c(-c3ccc(F)cc3)csc2c1=O` returned an RP-LC retention time of 709 s.

Molecule `O=C(NCc1ccc(F)cc1)c1cccc(-c2ccc(N3CCCC3)nc2)c1` showed an RP-LC retention time of 680 s.

`Cc1ccc(/C=C/S(=O)(=O)N2CC(c3nc(-c4ncccn4)no3)C2)cc1`: the RP-LC retention time is 729 s.

The molecule `CCCN1C(=O)C(CC(=O)NCCN(C)C)Sc2ncccc21` (configuration not stated) showed an RP-LC retention time of 588 s.

In turn, `O=C(Nc1nc(C(=O)N2CCN(C(=O)c3ccco3)CC2)co1)c1ccsc1` displayed an RP-LC retention time of 656 s.

`Brc1ccc(-c2nc(-c3ccc4nncn4c3)no2)cc1`: the RP-LC retention time turned out to be 913 s.

In turn, `Cc1ccc(C(=O)N2C[C@@H]3C[C@H](NC(=O)c4cccs4)[C@H]2C3)cn1` showed an RP-LC retention time of 581 s.

Consider `Cc1nc(-c2cc3ccccc3nc2N2CCN(c3ccc(F)cc3)CC2)no1`, for which the RP-LC retention time amounted to 1110 s.

In turn, `Cc1noc2ncn(CC(=O)NCc3ccc(Cl)cc3)c(=O)c12` showed an RP-LC retention time of 769 s.

As to `Cc1ccc(Sc2ccc(N3CCCC(C(=O)NCc4ccccc4)C3)nn2)cc1` (configuration not stated), the RP-LC retention time came to 905 s.

In turn, `O=C(Cn1c(=O)n(C2CCCCC2)c2ncccc21)NCCN1CCOCC1` showed an RP-LC retention time of 627 s.

`COc1ccc(C(=O)N2CCN(C(=O)c3nnn4c3COC(c3ccc(F)cc3)C4)CC2)cc1F` (configuration not stated) had an RP-LC retention time of 844 s.

Regarding `CC(C)NC(=O)C1CCN(S(C)(=O)=O)c2cc(Cl)ccc2O1` (configuration not stated), the RP-LC retention time was found to be 777 s.

In the case of `Cc1ccc(-c2noc(Cn3ccn(-c4cc(C)ccc4C)c(=O)c3=O)n2)cc1`, the RP-LC retention time stood at 950 s.

The molecule `Cc1ccc(NC(=O)C2CCCN2S(=O)(=O)c2cc3c(cc2C)NC(=O)CO3)cc1Cl` (configuration not stated) gave an RP-LC retention time of 791 s.

As to `Cc1noc(C)c1-c1ccc(S(=O)(=O)NCc2ccc(F)cc2)cc1`, the RP-LC retention time was 942 s.

Regarding `O=C(CN1CCc2[nH]c3c(F)ccc(F)c3c(=O)c2C1)Nc1ccccc1Cl`, the RP-LC retention time was determined as 953 s.

`CCCNC(=O)N1CCc2nc(-c3ccccc3)ncc2C1` showed an RP-LC retention time of 751 s.

Take `O=C(NCCc1csc(C2CCCN(C(=O)C3CCCC3)C2)n1)C1CC1` (configuration not stated): the RP-LC retention time is 696 s.

For `CN1C(=O)CCc2cc(NC(=O)Cc3c(F)cccc3Cl)ccc21`, the RP-LC retention time is 784 s.

Take `COc1cccc(/C=C/c2nc(C#N)c(NCCN(C)C)o2)c1`: the RP-LC retention time was determined as 654 s.

Turning to `O=C(CN1C(=O)CC(c2ccccc2)S(=O)(=O)c2ccccc21)Nc1ccccc1F` (configuration not stated), the RP-LC retention time was found to be 871 s.

Turning to `CCc1cc(C(=O)NCCN2CCOCC2)nc2cc(-c3ccccn3)nn12`, the RP-LC retention time worked out at 592 s.

`CCc1csc(-c2ccc(N3CCN(C(=O)c4ccc(F)c(F)c4)CC3)nc2)n1` showed an RP-LC retention time of 955 s.

For the molecule `CCCn1cnc2cc(CNC(=O)c3cccc(C(F)(F)F)c3)ccc21`, the RP-LC retention time was 690 s.

For `Cc1ccc2c(Nc3ccc(F)c(C#N)c3)c(C(=O)N3CCC(C)CC3)cnc2n1`, the RP-LC retention time worked out at 603 s.

In the case of `COC(=O)c1c(-c2ccccc2)csc1NC(=O)c1ccnn1C`, the RP-LC retention time amounted to 1110 s.

`NS(=O)(=O)c1ccc(NC(=O)Nc2ccc(F)cc2)cc1`: the RP-LC retention time turned out to be 772 s.

The molecule `CC1CCN(C2=NCCN2C(=O)c2ccc(F)cc2)CC1` yielded an RP-LC retention time of 661 s.

Molecule `O=C(NC1CC1)C1CCN(c2ccc(=O)n(-c3ccc(F)cc3)n2)CC1` yielded an RP-LC retention time of 671 s.

Turning to `O=S(=O)(c1cccs1)N1CCN(c2ncccn2)CC1`, the RP-LC retention time came out at 754 s.
